# Laboratory results as given in EP2582674B1 (Cymabay Therapeutics, Inc., priority 2010, dated 2011).
# Target: T1, human GPR120 (Homo sapiens, UniProt Q5NUL3)
# T1 construct: host or cells: HEK293 cells co-expressing Gqi5
# T1 sequence (Q5NUL3 1-361): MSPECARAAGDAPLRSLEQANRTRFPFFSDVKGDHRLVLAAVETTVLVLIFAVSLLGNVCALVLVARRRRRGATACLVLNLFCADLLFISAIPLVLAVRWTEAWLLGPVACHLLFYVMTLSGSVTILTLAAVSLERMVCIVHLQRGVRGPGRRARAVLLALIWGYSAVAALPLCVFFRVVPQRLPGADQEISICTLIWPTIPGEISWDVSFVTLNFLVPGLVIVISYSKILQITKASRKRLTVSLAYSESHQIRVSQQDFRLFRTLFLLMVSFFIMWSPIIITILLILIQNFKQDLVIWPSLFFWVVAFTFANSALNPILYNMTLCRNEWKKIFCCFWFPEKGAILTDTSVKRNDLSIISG
# Test: Intracellular Ca2+ assay in human GPR120 stable cell line (FLIPR Calcium 4 dye, Flexstation)
# Format: cell-based
# Settings: HEK293, % activity at 2.5 µM compared to the maximal activity of the compound of Example 25 at 2.5 µM (=100%); HEK293 cells co-expressing Gqi5; read-out: % Activity (Ex. 25 Reference Compound)
# Method: Human GPR120 stable cell line was purchased from Multispan Inc (26219 Eden Landing Road, Hayward, CA94545). This GPR120 cell line was generated in HEK293 cells co-expressing Gqi5. In this cell line, the Flag epitope tag (DYKDDDDK) was fused to the amino terminus of human GPR120 protein.
# The concentration of intracellular Ca^2+ was measured as described below. Human GPR120 cells were plated in 96 well plates (Poly-D-Lysine coated black/clear Plate, Greiner Bio-One) at 70,000 cells per well and cultured overnight in conditions of 37°C and 5% CO2. A Ca^2+ assay dye stock solution was prepared by adding 10 mL of assay buffer (HBSS/20mM HEPES, pH 7.4) to FLIPR Calcium 4 Assay Bulk Kit (Molecular Devices). The 10 mL of Ca^2+ assay dye solution was prepared by further diluting 0.5 mL of Ca^2+ assay dye stock solution with 10 mL of assay buffer. The medium of the cells was removed and immediately 100 µL of the Ca^2+ assay dye solution was dispensed into each well followed by incubation at 37°C and 5% CO2 for 50 minutes to incorporate the Ca^2+ dye into the cells. The cell plate was then placed in the Flexstation (Molecular Devices) for 20 minutes at 37°C. Compounds were dissolved in 100% DMSO and diluted to desired concentrations with assay buffer and placed in the Flexstation simultaneously with the cell plate for 20 minute incubation at 37°C prior to reading. Fluorescence intensity was measured immediately following compound addition (25 µL/well) on the Flexstation at an excitation wavelength of 485 nm and an emission wavelength of 525 with 515 nm auto cutoff. The resulting increase in fluorescence intensities corresponds to increases in intracellular Ca^2+ levels.
# Compounds were dissolved in 100% DMSO to a concentration of 20 mM to provide stock solutions. To determine activity against human GPR120, compounds were added with human GPR120 stably expressing cells (described above), at eight desired concentrations ranging from 0.00001 to 20 µM, in 96 well plates and fluorescence intensities were measured for 90 seconds with 2-second intervals. An EC50 value (concentration of the GPR120 agonist where 50% of the agonist's maximal activity is observed) was calculated using the changes (Max-Min) of fluorescence intensity.
# To determine percent activity for a tested compound, the fluorescence intensity value obtained at a particular concentration were compared to the maximal fluorescence intensity value obtained for reference compound GW9508 (4-[[(3-phenoxyphenyl)methyl]amino]benzene propanoic acid; British Journal of Pharmacology 2006 148, 619-628) or the compound of Example 25. When GW9508 was used as the reference compound, the maximal activity of GW9508 at 6.7µM was designated as 100% activity. When the compound of Example 25 was used as the reference compound, the maximal activity of the compound of Example 25 at 2.5 µM was designated as 100% activity. Typically, the GW9508 activity reached a maximum at a concentration of approximately 6.7 µM and typically the compound of Example 25 reached a maximum activity at approximately 2.5µM. […]
row,Compound,activity at 2.5 µM
1,"CC1(C)Cc2cc(F)cc(COc3cc(Cl)c(CCC(=O)O)c(Cl)c3)c2O1 [Example 197, 3-(2,6-dichloro-4-((5-fluoro-2,2-dimethyl-2,3-dihydrobenzofuran-7-yl)methoxy)phenyl)propanoic acid]",151%
2,"CC1(C)Cc2c(COc3ccc4c(c3)CCC4CC(=O)O)ccc(F)c2O1 (stereo not drawn) [Example 94, 2-(5-((7-fluoro-2,2-dimethyl-2,3-dihydrobenzofuran-4-yl)methoxy)-2,3-dihydro-1H-inden-1-yl)acetic acid]",98.5%
3,"CC1(C)Cc2cc(F)cc(COc3ccc(CCC(=O)O)c4c3CCCC4)c2O1 [Example 218, 3-(4-((5-fluoro-2,2-dimethyl-2,3-dihydrobenzofuran-7-yl)methoxy)-5,6,7,8-tetrahydronaphthalen-1-yl)propanoic acid]",114%
4,"CC(Cc1cccc(OCc2cc(Cl)cc3c2OC(C)(C)C3)c1)C(=O)O (stereo not drawn) [Example 251, 3-(3-((5-chloro-2,2-dimethyl-2,3-dihydrobenzofuran-7-yl)methoxy)phenyl)-2-methylpropanoic acid]",61.1%
5,"Cc1cc2cc(Cl)cc(COc3ccc(CC(C)C(=O)O)cc3F)c2o1 (stereo not drawn) [Example 120, 3-(4-((5-chloro-2-methylbenzofuran-7-yl)methoxy)-3-fluorophenyl)-2-methylpropanoic acid]",104%
6,"COc1cc(COc2ccc(CC(C)C(=O)O)cc2)c2c(c1)CC(C)(C)O2 (stereo not drawn) [Example 108, 3-(4-((5-methoxy-2,2-dimethyl-2,3-dihydrobenzofuran-7-yl)methoxy)phenyl)-2-methylpropanoic acid]",144%
7,"CC(Cc1ccc(NCc2cc(F)cc3c2OC(C)(C)C3)cc1)C(=O)O (stereo not drawn) [Example 67, 3-(4-(((5-fluoro-2,2-dimethyl-2,3-dihydrobenzofuran-7-yl)methyl)amino)phenyl)-2-methylpropanoic acid]",142%
8,"CC1(C)Cc2cc(Cl)cc(COc3c(F)cc(C4CC4CC(=O)O)cc3F)c2O1 (stereo not drawn) [Example 41, 2-(2-(4-((5-chloro-2,2-dimethyl-2,3-dihydrobenzofuran-7-yl)methoxy)-3,5-difluorophenyl)cyclopropyl)acetic acid]",116%
9,"CC(C)Oc1ccc(Cl)cc1COc1cc2c(cc1F)C(CC(=O)O)CC2 (stereo not drawn) [Example 257, 2-(5-((5-chloro-2-isopropoxybenzyl)oxy)-6-fluoro-2,3-dihydro-1H-inden-1-yl)acetic acid]",125%
10,"CC(Cc1cc(F)c(OCc2cc(OCc3ccccc3)cc3c2OC(C)(C)C3)c(F)c1)C(=O)O (stereo not drawn) [Example 111, 3-(4-((5-(benzyloxy)-2,2-dimethyl-2,3-dihydrobenzofuran-7-yl)methoxy)-3,5-difluorophenyl)-2-methylpropanoic acid]",51.5%
11,"CC(C)Oc1ncccc1COc1ccc2c(c1)CCC2CC(=O)O (stereo not drawn) [Example 259, 2-(5-((2-isopropoxypyridin-3-yl)methoxy)-2,3-dihydro-1H-inden-1-yl)acetic acid]",118%

# Results, then the compound that gave them:
row,activity at 2.5 µM,Compound
1,47%,"CC(=O)NCCOC(=O)C(C)Cc1ccc(OCc2cc(Cl)cc3c2OC(C)(C)C3)c(C(F)(F)F)c1 (stereo not drawn) [Example 126, 2-acetamidoethyl 3-(4-((5-chloro-2,2-dimethyl-2,3-dihydrobenzofuran-7-yl)methoxy)-3-(trifluoromethyl)phenyl)-2-methylpropanoate]"
2,111%,"CC1(C)Cc2cc(F)cc(COc3ccc(CCC(=O)O)c(Cl)c3)c2O1 [Example 47, 3-(2-chloro-4-((5-fluoro-2,2-dimethyl-2,3-dihydrobenzofuran-7-yl)methoxy)phenyl)propanoic acid]"
3,10.2%,"CC1(C)Cc2cc(Cl)cc(COc3ccccc3CCC(=O)O)c2O1 [Example 250, 3-(2-((5-chloro-2,2-dimethyl-2,3-dihydrobenzofuran-7-yl)methoxy)phenyl)propanoic acid]"
4,5.23%,"COc1cccc(-c2cc(COc3ccc(CC(C)C(=O)O)cc3)c3c(c2)CC(C)(C)O3)c1 (stereo not drawn) [Example 86, 3-(4-((5-(3-methoxyphenyl)-2,2-dimethyl-2,3-dihydrobenzofuran-7-yl)methoxy)phenyl)-2-methylpropanoic acid]"
5,86.2%,"CC(Cc1ccc(OCc2cc(Cl)cc3c2OC(C)(C)C3O)c(F)c1)C(=O)O (stereo not drawn) [Example 80, 3-(4-((5-chloro-3-hydroxy-2,2-dimethyl-2,3-dihydrobenzofuran-7-yl)methoxy)-3-fluorophenyl)-2-methylpropanoic acid]"
6,3.58%,"CN(C)Cc1cc(OCc2cc(F)cc3c2OC(C)(C)C3)ccc1CCC(=O)O [Example 122, 3-(2-((dimethylamino)methyl)-4-((5-fluoro-2,2-dimethyl-2,3-dihydrobenzofuran-7-yl)methoxy)phenyl)propanoic acid]"
7,154%,"CC(Cc1ccc(OCc2cc(F)cc3c2OC2(CCCC2)C3)cc1)C(=O)O (stereo not drawn) [Example 162, 3-(4-((5-fluoro-3H-spiro[benzofuran-2,1'-cyclopentane]-7-yl)methoxy)phenyl)-2-methylpropanoic acid]"

# Same assay, conditions: HEK293, % activity at 5 µM compared to the maximal activity of GW9508 at 6.7 µM (=100%); HEK293 cells co-expressing Gqi5; read-out: %Activity (GW9508 Reference Compound)
row,Compound,activity at 5 µM
1,"Cc1cc(CC(C)C(=O)O)ccc1OCc1cc(F)cc2c1OC(C)(C)C2 (stereo not drawn) [Example 6, 3-(4-((5-fluoro-2,2-dimethyl-2,3-dihydrobenzofuran-7-yl)methoxy)-3-methylphenyl)-2-methylpropanoic acid]",147%
2,"CC(Cc1cc(F)c(OCc2cccc3c2OC(C)(C)CC3)c(F)c1)C(=O)O (stereo not drawn) [Example 2, 3-(4-((2,2-dimethylchroman-8-yl)methoxy)-3,5-difluorophenyl)-2-methylpropanoic acid]",135%
3,"CC(Cc1ccc(OCc2ccc(F)c3c2OC(C)(C)C3)cc1)C(=O)O (stereo not drawn) [Example 30, 3-(4-((4-fluoro-2,2-dimethyl-2,3-dihydrobenzofuran-7-yl)methoxy)phenyl)-2-methylpropanoic acid]",177%

# Further lines, results first:
row,activity at 5 µM,Compound
1,125%,"CC1(C)Cc2cc(F)cc(COc3ccc4c(c3)CCC4CC(=O)O)c2O1 (stereo not drawn) [Example 37, 2-(5-((5-fluoro-2,2-dimethyl-2,3-dihydrobenzofuran-7-yl)methoxy)-2,3-dihydro-1H-inden-1-yl)acetic acid]"
2,111%,"Cc1cc(COc2ccc(CC(C)C(=O)O)cc2)c2c(c1)CC(C)(C)O2 (stereo not drawn) [Example 4, 2-methyl-3-(4-((2,2,5-trimethyl-2,3-dihydrobenzofuran-7-yl)methoxy)phenyl)propanoic acid]"
3,95.3%,"CC(Cc1cc(F)c(OCc2cccc3c2OC(C)C3C)c(F)c1)C(=O)O (stereo not drawn) [Example 40, 3-(4-((2,3-dimethyl-2,3-dihydrobenzofuran-7-yl)methoxy)-3,5-difluorophenyl)-2-methylpropanoic acid]"

# Same assay, conditions: eight concentrations from 0.00001 to 20 µM; changes (Max-Min) of fluorescence intensity
row,Compound,EC50
1,"CC(Cc1cccc(OCc2cc(Cl)cc3c2OC(C)(C)C3)c1)C(=O)O (stereo not drawn) [Example 251, 3-(3-((5-chloro-2,2-dimethyl-2,3-dihydrobenzofuran-7-yl)methoxy)phenyl)-2-methylpropanoic acid]",1 to 10 µM
2,"CC(Cc1cc(F)c(OCc2cc(OCc3ccccc3)cc3c2OC(C)(C)C3)c(F)c1)C(=O)O (stereo not drawn) [Example 111, 3-(4-((5-(benzyloxy)-2,2-dimethyl-2,3-dihydrobenzofuran-7-yl)methoxy)-3,5-difluorophenyl)-2-methylpropanoic acid]",1 to 10 µM
3,"CC(Cc1ccc(OCc2cc(Br)cc3c2OC(C)(C)C3)cc1)C(=O)O (stereo not drawn) [Example 81, 3-(4-((5-bromo-2,2-dimethyl-2,3-dihydrobenzofuran-7-yl)methoxy)phenyl)-2-methylpropanoic acid]",≤ 1 µM

# The next lines start with the values.
row,EC50,Compound
1,1 to 10 µM,"CC(CC(=O)O)Cc1ccc(OCc2cc(Cl)cc3c2OC(C)(C)C3)cc1 (stereo not drawn) [Example 183, 4-(4-((5-chloro-2,2-dimethyl-2,3-dihydrobenzofuran-7-yl)methoxy)phenyl)-3-methylbutanoic acid]"
2,> 10 µM,"CC1(C)Cc2cc(Cl)cc(COc3ccccc3CCC(=O)O)c2O1 [Example 250, 3-(2-((5-chloro-2,2-dimethyl-2,3-dihydrobenzofuran-7-yl)methoxy)phenyl)propanoic acid]"
3,1 to 10 µM,"CC(Cc1ccc(OCc2cc(Cl)cc3c2OC(C)(C)C3O)c(F)c1)C(=O)O (stereo not drawn) [Example 80, 3-(4-((5-chloro-3-hydroxy-2,2-dimethyl-2,3-dihydrobenzofuran-7-yl)methoxy)-3-fluorophenyl)-2-methylpropanoic acid]"
